Results as given in ChEMBL document CHEMBL1671854, “ramR mutations involved in efflux-mediated multidrug resistance in Salmonella enterica serovar Typhimurium” (2008).
Values after ≈ are worked out from the molar mass of the structure shown.

How the values were obtained:
Format in all cases: functional, Salmonella enterica subsp. enterica serovar Typhimurium
Salmonella typhimurium [1] = experiment: Antimicrobial activity against multidrug-resistant Salmonella enterica serovar Typhimurium BN9945 by agar doubling dilution method
Salmonella typhimurium [2] = experiment: Antimicrobial activity against multidrug-resistant Salmonella enterica serovar Typhimurium 543SA98 harboring GyrA […] mutant gene by agar doubling dilution method
Salmonella typhimurium [3] = experiment: Antimicrobial activity against multidrug-resistant Salmonella enterica serovar Typhimurium 902SA92 harboring plasmid encoded RamR gene, GyrA S83A and D87N, GyrB S464F and ParC S80I mutant genes by agar doubling dilution method
Salmonella typhimurium [4] = experiment: Antimicrobial activity against Salmonella enterica serovar Typhimurium BN18/21 by agar doubling dilution method
Salmonella typhimurium [5] = experiment: Antimicrobial activity against soxR::kan-deficient Salmonella enterica serovar Typhimurium S/921495 by agar doubling dilution method
Salmonella typhimurium [6] = experiment: Antimicrobial activity against Salmonella enterica serovar Typhimurium BN18/21 harboring plasmid encoded RamR gene by agar doubling dilution method
Salmonella typhimurium [7] = experiment: Antimicrobial activity against soxS::kan-deficient Salmonella enterica serovar Typhimurium S/921495 by agar doubling dilution method
Salmonella typhimurium [8] = experiment: Antimicrobial activity against ramA::kan-deficient Salmonella enterica serovar Typhimurium BN18/21 by agar doubling dilution method
Salmonella typhimurium [9] = experiment: Antimicrobial activity against Salmonella enterica serovar Typhimurium BN18/71 harboring GyrA G81C, acrR mutant genes by agar doubling dilution method
Salmonella typhimurium [10] = experiment: Antimicrobial activity against ramR-deficient Salmonella enterica serovar Typhimurium S/921495 by agar doubling dilution method
Salmonella typhimurium [11] = experiment: Antimicrobial activity against ramA::kan-deficient Salmonella enterica serovar Typhimurium 102SA00 harboring GyrA S83A and D87N, GyrB S464F and ParC S80I mutant genes by agar doubling dilution method
Salmonella typhimurium [12] = experiment: Antimicrobial activity against Salmonella enterica serovar Typhimurium S/921495 harboring plasmid encoded RamR gene by agar doubling dilution method
Salmonella typhimurium [13] = experiment: Antimicrobial activity against multidrug-resistant Salmonella enterica serovar Typhimurium 102SA00 harboring plasmid encoded RamR gene, GyrA S83A and D87N, GyrB S464F and ParC S80I mutant genes by agar doubling dilution method
Salmonella typhimurium [14] = experiment: Antimicrobial activity against multidrug-resistant Salmonella enterica serovar Typhimurium 902SA92 harboring GyrA S83A and D87N, GyrB S464F and ParC S80I mutant genes by agar doubling dilution method
Salmonella typhimurium [15] = experiment: Antimicrobial activity against ramR-deficient Salmonella enterica serovar Typhimurium S/921495 harboring plasmid encoded RamR gene by agar doubling dilution method
Salmonella typhimurium [16] = experiment: Antimicrobial activity against Salmonella enterica serovar Typhimurium BN18/41 harboring GyrA G81C,acrR mutant genes by agar doubling dilution method
Salmonella typhimurium [17] = experiment: Antimicrobial activity against multidrug-resistant Salmonella enterica serovar Typhimurium BN10055 harboring GyrA S83Y mutant gene by agar doubling dilution method
Salmonella typhimurium [18] = experiment: Antimicrobial activity against ramA::kan-deficient Salmonella enterica serovar Typhimurium BN9181 by agar doubling dilution method
Salmonella typhimurium [19] = experiment: Antimicrobial activity against ramA::kan-deficient Salmonella enterica serovar Typhimurium 543SA98 harboring GyrA S83Y mutant gene by agar doubling dilution method
Salmonella typhimurium [20] = experiment: Antimicrobial activity against Salmonella enterica serovar Typhimurium S/921495 by agar doubling dilution method
Salmonella typhimurium [21] = experiment: Antimicrobial activity against multidrug-resistant Salmonella enterica serovar Typhimurium 102SA00 harboring GyrA S83A and D87N, GyrB S464F and ParC S80I mutant genes by agar doubling dilution method
Salmonella typhimurium [22] = experiment: Antimicrobial activity against Salmonella enterica serovar Typhimurium BN18 harboring plasmid encoded RamR gene by agar doubling dilution method
Salmonella typhimurium [23] = experiment: Antimicrobial activity against multidrug-resistant Salmonella enterica serovar Typhimurium BN10055 harboring plasmid encoded RamR gene, GyrA S83Y mutant gene by agar doubling dilution method
Salmonella typhimurium [24] = experiment: Antimicrobial activity against ramA::kan-deficient Salmonella enterica serovar Typhimurium S/921495 by agar doubling dilution method
Salmonella typhimurium [25] = experiment: Antimicrobial activity against multidrug-resistant Salmonella enterica serovar Typhimurium BN9945 harboring plasmid encoded RamR gene by agar doubling dilution method
Salmonella typhimurium [26] = experiment: Antimicrobial activity against ramA::kan-deficient Salmonella enterica serovar Typhimurium BN10055 harboring GyrA S83Y mutant gene by agar doubling dilution method
Salmonella typhimurium [27] = experiment: Antimicrobial activity against multidrug-resistant Salmonella enterica serovar Typhimurium 543SA98 harboring plasmid encoded RamR gene, GyrA S83Y mutant gene by agar doubling dilution method
Salmonella typhimurium [28] = experiment: Antimicrobial activity against ramA::kan-deficient Salmonella enterica serovar Typhimurium BN9945 by agar doubling dilution method
Salmonella typhimurium [29] = experiment: Antimicrobial activity against ramA::kan-deficient Salmonella enterica serovar Typhimurium 902SA92 harboring GyrA S83A and D87N, GyrB S464F and ParC S80I mutant genes by agar doubling dilution method
Salmonella typhimurium [30] = experiment: Antimicrobial activity against multidrug-resistant Salmonella enterica serovar Typhimurium BN9181 by agar doubling dilution method
Salmonella typhimurium [31] = experiment: Antimicrobial activity against Salmonella enterica serovar Typhimurium BN18 by agar doubling dilution method
Salmonella typhimurium [32] = experiment: Antimicrobial activity against marR-deficient Salmonella enterica serovar Typhimurium S/921495 by agar doubling dilution method
Salmonella typhimurium [33] = experiment: Antimicrobial activity against marR::kan-deficient Salmonella enterica serovar Typhimurium S/921495 by agar doubling dilution method
Salmonella typhimurium [34] = experiment: Antimicrobial activity against ramR::kan-deficient Salmonella enterica serovar Typhimurium S/921495 by agar doubling dilution method
Salmonella typhimurium [35] = experiment: Antimicrobial activity against Salmonella enterica serovar Typhimurium BN18/41 harboring plasmid encoded RamR gene, GyrA G81C,acrR mutant genes by agar doubling dilution method
Salmonella typhimurium [36] = experiment: Antimicrobial activity against marA::kan-deficient Salmonella enterica serovar Typhimurium S/921495 by agar doubling dilution method
Salmonella typhimurium [37] = experiment: Antimicrobial activity against multidrug-resistant Salmonella enterica serovar Typhimurium BN9181 harboring plasmid encoded RamR gene by agar doubling dilution method
Salmonella typhimurium [38] = experiment: Antimicrobial activity against ramA::kan-deficient Salmonella enterica serovar Typhimurium BN18/71 harboring plasmid encoded RamR gene, GyrA G81C,acrR mutant genes by agar doubling dilution method
Salmonella typhimurium [39] = experiment: Antimicrobial activity against ramA::kan-deficient Salmonella enterica serovar Typhimurium BN18/41 harboring plasmid encoded RamR gene, GyrA G81C,acrR mutant genes by agar doubling dilution method
Salmonella typhimurium [40] = experiment: Antimicrobial activity against Salmonella enterica serovar Typhimurium BN18/71 harboring plasmid encoded RamR gene, GyrA G81C,acrR mutant genes by agar doubling dilution method
Salmonella typhimurium [41] = experiment: Antimicrobial activity against ramA::kan-deficient Salmonella enterica serovar Typhimurium BN18 by agar doubling dilution method

Compound: CCn1cc(C(=O)O)c(=O)c2ccc(C)nc21 [NALIDIXIC ACID]
- MIC (Salmonella typhimurium [1]): 1020 µg/mL (≈ 4410 µM)
- MIC (Salmonella typhimurium [2]): 1020 µg/mL (≈ 4410 µM)
- MIC (Salmonella typhimurium [3]): 4100 µg/mL (≈ 17600 µM)
- MIC (Salmonella typhimurium [4]): 64 µg/mL (≈ 276 µM)
- MIC (Salmonella typhimurium [5]): 2 µg/mL (≈ 8.61 µM)
- MIC (Salmonella typhimurium [6]): 8 µg/mL (≈ 34.4 µM)
- MIC (Salmonella typhimurium [7]): 4 µg/mL (≈ 17.2 µM)
- MIC (Salmonella typhimurium [8]): 8 µg/mL (≈ 34.4 µM)
- MIC (Salmonella typhimurium [9]): > 4100 µg/mL
- MIC (Salmonella typhimurium [10]): 16 µg/mL (≈ 68.9 µM)
- MIC (Salmonella typhimurium [11]): 4100 µg/mL (≈ 17600 µM)
- MIC (Salmonella typhimurium [12]): 4 µg/mL (≈ 17.2 µM)
- MIC (Salmonella typhimurium [13]): 4100 µg/mL (≈ 17600 µM)
- MIC (Salmonella typhimurium [14]): > 4100 µg/mL
- MIC (Salmonella typhimurium [15]): 4 µg/mL (≈ 17.2 µM)
- MIC (Salmonella typhimurium [16]): > 4100 µg/mL
- MIC (Salmonella typhimurium [17]): > 4100 µg/mL
- MIC (Salmonella typhimurium [18]): 4 µg/mL (≈ 17.2 µM)
- MIC (Salmonella typhimurium [19]): 512 µg/mL (≈ 2200 µM)
- MIC (Salmonella typhimurium [20]): 4 µg/mL (≈ 17.2 µM)
- MIC (Salmonella typhimurium [21]): > 4100 µg/mL
- MIC (Salmonella typhimurium [22]): 4 µg/mL (≈ 17.2 µM)
- MIC (Salmonella typhimurium [23]): > 4100 µg/mL
- MIC (Salmonella typhimurium [24]): 4 µg/mL (≈ 17.2 µM)
- MIC (Salmonella typhimurium [25]): 512 µg/mL (≈ 2200 µM)
- MIC (Salmonella typhimurium [26]): 512 µg/mL (≈ 2200 µM)
- MIC (Salmonella typhimurium [27]): 512 µg/mL (≈ 2200 µM)
- MIC (Salmonella typhimurium [28]): 512 µg/mL (≈ 2200 µM)
- MIC (Salmonella typhimurium [29]): 4100 µg/mL (≈ 17600 µM)
- MIC (Salmonella typhimurium [30]): 4 µg/mL (≈ 17.2 µM)
- MIC (Salmonella typhimurium [31]): 4 µg/mL (≈ 17.2 µM)
- MIC (Salmonella typhimurium [32]): 2 µg/mL (≈ 8.61 µM)
- MIC (Salmonella typhimurium [33]): 2 µg/mL (≈ 8.61 µM)
- MIC (Salmonella typhimurium [34]): 16 µg/mL (≈ 68.9 µM)
- MIC (Salmonella typhimurium [35]): 4100 µg/mL (≈ 17600 µM)
- MIC (Salmonella typhimurium [36]): 4 µg/mL (≈ 17.2 µM)
- MIC (Salmonella typhimurium [37]): 4 µg/mL (≈ 17.2 µM)
- MIC (Salmonella typhimurium [38]): 4100 µg/mL (≈ 17600 µM)
- MIC (Salmonella typhimurium [39]): 4100 µg/mL (≈ 17600 µM)
- MIC (Salmonella typhimurium [40]): 4100 µg/mL (≈ 17600 µM)
- MIC (Salmonella typhimurium [41]): 4 µg/mL (≈ 17.2 µM)

Compound: CN(C)[C@@H]1C(O)=C(C(N)=O)C(=O)[C@@]2(O)C(O)=C3C(=O)c4c(O)cccc4[C@@](C)(O)[C@H]3C[C@@H]12 [TETRACYCLINE]
- MIC (Salmonella typhimurium [1]): 128 µg/mL (≈ 288 µM)
- MIC (Salmonella typhimurium [2]): 128 µg/mL (≈ 288 µM)
- MIC (Salmonella typhimurium [3]): 256 µg/mL (≈ 576 µM)
- MIC (Salmonella typhimurium [4]): 4 µg/mL (≈ 9 µM)
- MIC (Salmonella typhimurium [5]): 1 µg/mL (≈ 2.25 µM)
- MIC (Salmonella typhimurium [6]): 1 µg/mL (≈ 2.25 µM)
- MIC (Salmonella typhimurium [7]): 1 µg/mL (≈ 2.25 µM)
- MIC (Salmonella typhimurium [8]): 1 µg/mL (≈ 2.25 µM)
- MIC (Salmonella typhimurium [9]): 16 µg/mL (≈ 36 µM)
- MIC (Salmonella typhimurium [10]): 4 µg/mL (≈ 9 µM)
- MIC (Salmonella typhimurium [11]): 256 µg/mL (≈ 576 µM)
- MIC (Salmonella typhimurium [12]): 1 µg/mL (≈ 2.25 µM)
- MIC (Salmonella typhimurium [13]): 256 µg/mL (≈ 576 µM)
- MIC (Salmonella typhimurium [14]): 256 µg/mL (≈ 576 µM)
- MIC (Salmonella typhimurium [15]): 1 µg/mL (≈ 2.25 µM)
- MIC (Salmonella typhimurium [16]): 8 µg/mL (≈ 18 µM)
- MIC (Salmonella typhimurium [17]): 256 µg/mL (≈ 576 µM)
- MIC (Salmonella typhimurium [18]): 32 µg/mL (≈ 72 µM)
- MIC (Salmonella typhimurium [19]): 32 µg/mL (≈ 72 µM)
- MIC (Salmonella typhimurium [20]): 1 µg/mL (≈ 2.25 µM)
- MIC (Salmonella typhimurium [21]): 256 µg/mL (≈ 576 µM)
- MIC (Salmonella typhimurium [22]): 1 µg/mL (≈ 2.25 µM)
- MIC (Salmonella typhimurium [23]): 256 µg/mL (≈ 576 µM)
- MIC (Salmonella typhimurium [24]): 1 µg/mL (≈ 2.25 µM)
- MIC (Salmonella typhimurium [25]): 32 µg/mL (≈ 72 µM)
- MIC (Salmonella typhimurium [26]): 64 µg/mL (≈ 144 µM)
- MIC (Salmonella typhimurium [27]): 32 µg/mL (≈ 72 µM)
- MIC (Salmonella typhimurium [28]): 32 µg/mL (≈ 72 µM)
- MIC (Salmonella typhimurium [29]): 256 µg/mL (≈ 576 µM)
- MIC (Salmonella typhimurium [30]): 32 µg/mL (≈ 72 µM)
- MIC (Salmonella typhimurium [31]): 1 µg/mL (≈ 2.25 µM)
- MIC (Salmonella typhimurium [32]): 1 µg/mL (≈ 2.25 µM)
- MIC (Salmonella typhimurium [33]): 1 µg/mL (≈ 2.25 µM)
- MIC (Salmonella typhimurium [34]): 4 µg/mL (≈ 9 µM)
- MIC (Salmonella typhimurium [35]): 2 µg/mL (≈ 4.5 µM)
- MIC (Salmonella typhimurium [36]): 1 µg/mL (≈ 2.25 µM)
- MIC (Salmonella typhimurium [37]): 32 µg/mL (≈ 72 µM)
- MIC (Salmonella typhimurium [38]): 2 µg/mL (≈ 4.5 µM)
- MIC (Salmonella typhimurium [39]): 2 µg/mL (≈ 4.5 µM)
- MIC (Salmonella typhimurium [40]): 2 µg/mL (≈ 4.5 µM)
- MIC (Salmonella typhimurium [41]): 1 µg/mL (≈ 2.25 µM)
